Experimental data reported in patent US11465978B2, “Anthranilic amides and the use thereof” (THE ADMINISTRATORS OF THE TULANE EDUCATIONAL FUND, priority 2013, dated 2022).

Columns and labels:
[1] = tested on: Mia-PaCa2 cells; test: Crystal violet morphology of pancreatic cancer cells; type: cell-based; settings: Mia-PaCa2, 3 days
Procedure: (A) Mia-PaCa2 cells were seeded in a 96-well plate at a density of 1,000 cells per well and treated with vehicle (DMSO) and SC-1-151. After 3 days, cells were fixed with glutaraldehyde and stained with crystal violet. (B) qPCR for EMT-regulating genes following SC-1-151 treatment. Pancreatic cancer cells were grown in 5% CS phenol free DMEM for 48 hours before treatment with vehicle (DMSO) or SC-1-151 (1 μM) for 24 hours. Cycle number was normalized to R-actin and vehicle-treated cells scaled to 1, n=3.

[2] = tested on: pERK5; test: Western blot, inhibition of EGF-mediated formation of pERK5 in MDA-MB-231 cells; type: cell-based
Procedure: FIG. 9 is a set of bar graphs showing a Western blot analysis of potential MEK5 inhibitors. The MDA-MB-231 triple negative breast cancer cell line was pretreated with compounds (10 μM) for 30 minutes followed by stimulation with epidermal growth factor (EGF, 50 ng/mL) for 15 minutes. Vehicle-treated cells were pretreated with DMSO for 30 minutes prior to EGF stimulation for 15 minutes. Protein visualization and quantification analysis were performed using LI-COR Odyssey Imager. * P<0.05 vs. Vehicle, one-way ANOVA followed by Tukey-Kramer test (n=3).
A number of compounds were tested for their potential as MEK5 inhibitors. The MDA-MB-231 triple negative breast cancer cell line was pretreated with 10 μM of compounds 24, 9b, 9a, 9c, 9e, 9f, 9d, 9h, 23, 7, and 15 for 30 minutes followed by stimulation with epidermal growth factor (EGF, 50 ng/mL) for 15 minutes. Vehicle-treated cells and known MEK1/2 inhibitor cells were pretreated with DMSO and U0126 respectively for 30 minutes prior to EGF stimulation for 15 minutes. Protein visualization and quantification analysis was performed using LI-COR Odyssey Imager. The results of the Western blot analysis are shown in FIG. 9. * P<0.05 vs. Vehicle, one-way ANOVA followed by Tukey-Kramer test (n=3).
MDA-MB-231 cells were grown on 10 cm cell culture plates [Sarstedt] in Dulbecco's Modified Eagle's Medium (DMEM; Gibco) with Ham's F12 Nutrient Mixture (1:1) (Invitrogen), 10% heat-inactivated FBS [Atlanta Biological and 0.5% penicillin/streptomycin [Gibco]. Cells were maintained at 37° C. with 5% CO2. Plating of the cells was done 36 hours before treatment in 35 mm culture plates [Sarstedt] and allowed to reach confluence. To test MEK-5 inhibitors, the cells were treated with epidermal growth factor (EGF; Sigma-Aldrich) 30 min after treatment with the compounds. 15 min after the addition of EGF, the cells were washed with 1×PBS [Sigma-Aldrich] and then lysed in 1% Triton X-100 buffer containing 20 mM Tris (pH 6.8), 137 mM NaCl, 25 mM beta glycerophosphate, 2 mM NaPPi, 2 mM EDTA, 1 mM Na3VO4, 10% glycerol, 5 μg/mL leupeptin, 5 μg/mL aprotinin, 2 mM benzamidine, 0.5 mM DTT, and 1 mM PMSF. The lysates were then centrifuged at 10,000 rpm for 10 min at 4° C.
Total protein content was assessed by Bradford Bio-Rad protein assay (Cat. No. 500-0006, Bio-Rad, Hercules, Calif.) and 30 μg of protein was loaded on a 8% SDS-PAGE gel for phosphorylated and total ERK1/2 and ERK5 proteins. After running the samples, gels were transferred to a nitrocellulose membrane (Cat. No. 926-31092, Licor Biosciences, Lincoln, Nebr.). After transfer, membranes were washed for 5 min with 1×PBS and blocked for 1 h in a Casein Blocking Buffer (Cat. No. 927-40200, Licor Biosciences) at room temperature. Membranes were then incubated overnight at 4° C. in primary antibody in CBB with 0.2% Tween-20. Antibodies included rabbit anti-phospho-ERK1/2 (Dilution—1:1000, Cat. No. 9101, Cell Signaling, Beverly, Mass.), mouse anti-total ERK1/2 (Dilution—1:1000, Cat. No. 9107, Cell Signaling), and rabbit anti-total ERK5 (Dilution—1:1,000, Cat. No. 3372, Cell Signaling). Mouse anti-α-Tubulin (Dilution—1:10,000, Cat. No. T5168, Sigma-Aldrich) was used as a loading control. After incubation with primary antibody, blots were washed in 1×PBS solution with 0.2% Tween-20 (1×PBS-T) and incubated with goat anti-rabbit (Dilution—1:10,000, Cat. No. 926-68021, LICOR Biosciences) and goat anti-mouse (Dilution—1:10,000, Cat. No. 926-32210, LICOR Biosciences) secondary antibodies for 1 h at room temperature. After washing the membranes with 1×PBS-T, the protein bands were visualized on an Odyssey Infrared Imager and quantified with Odyssey software (LICOR Biosciences).

NC(=O)c1ccc(F)c(F)c1Nc1ccc(I)cc1F [Compound 3, 3,4-difluoro-2-((2-fluoro-4-iodophenyl)amino)benzamide]
phenotype of pancreatic cancer cells [1]: induces an epithelial phenotype
pERK-5 decrease (%) ([2]; Example 3 table, DMSO = 0, MDA-MB-231, EGF stimulation): 59%
inhibition at 10 µM ([2]; Homo sapiens, MDA-MB-231, Table 1, MDA-MB-231, compounds 10 μM 30 min, then EGF 50 ng/mL 15 min, read-out: cellular pERK5 decrease (%)): 56.5%
